Results on 31 compounds are retold here after patent US8969363B2, “Heterocyclic compounds and uses thereof” (Infinity Pharmaceuticals, Inc., priority 2011, dated 2015).

Bounds are passed on as bounds.

For one assay, the target named is T1, PI3Kα (Homo sapiens, UniProt P42336).
T1 construct: purchased Millipore Corporation 14-602-K
Put plainly: PI3 Kinase HTRF assay, PI3Kα. Type of assay: biochemical. The settings on record: 10 μM PIP2, 10 μM ATP; 'Greater than 10 μM' and 'Greater than 1 μM to 10 μM'; read-out: PI3K α IC50. The text has this: (§1) A PI3-Kinase HTRF® assay kit (cat No. 33-016) purchased from Millipore Corporation was used to screen compounds provided herein. This assay used specific, high affinity binding of the GRP1 pleckstrin homology (PH) domain to PIP3, the product of a Class 1A or 1B PI3 Kinase acting on its physiological substrate PIP2. During the detection phase of the assay, a complex was generated between the GST-tagged PH domain and biotinylated short chain PIP3. The biotinylated PIP3 and the GST-tagged PH domain recruited fluorophores (Streptavidin-Allophycocyanin and Europium-labeled anti-GST respectively) to form the fluorescence resonance energy transfer (FRET) architecture, generating a stable time-resolved FRET signal. The FRET complex was disrupted in a competitive manner by non-biotinylated PIP3, a product formed in the PI3 Kinase assay.
(§2) PI3 Kinase α, β, γ and δ activity was assayed using the PI3 Kinase HTRF® assay kit (catalogue No. 33-016) purchased from Millipore Corporation. Purified recombinant PI3Kα (catalogue No. 14-602-K), PI3Kβ (catalogue No. 14-603-K), PI3Kγ (catalogue No. 14-558-K) and PI3Kδ (catalogue No. 14-604-K) were obtained from Millipore Corporation. Purified recombinant PI3K enzyme was used to catalyze the phosphorylation of phosphatidylinositol 4,5-bisphosphate (PIP2 at 10 μM) to phosphatidylinositol 3,4,5-trisphosphate (PIP3) in the presence of 10 μM ATP. The assay was carried out in 384-well format and detected using a Perkin Elmer EnVision Xcite Multilabel Reader. Emission ratios were converted into percent inhibitions and imported into GraphPad Prism software. The concentration necessary to achieve inhibition of enzyme activity by 50% (IC50) was calculated using concentrations ranging from 20 μM to 0.1 nM (12-point curve). IC50 values were determined using a nonlinear regression model available in GraphPad Prism 5. […]

Another assay has as its system Balb/c splenic B cells. Put plainly: B cell activation and proliferation assay (Alamar Blue). To be noted: Mus musculus, 'Less than 100 nM'. Type of assay: cell-based. The procedure:
The ability of one or more subject compounds to inhibit B cell activation and proliferation is determined according to standard procedures known in the art. For example, an in vitro cellular proliferation assay is established that measures the metabolic activity of live cells. The assay is performed in a 96 well microtiter plate using Alamar Blue reduction. Balb/c splenic B cells are purified over a Ficoll-Paque™ PLUS gradient followed by magnetic cell separation using a MACS B cell Isolation Kit (Miletenyi). Cells are plated in 90 μl at 50,000 cells/well in B Cell Media (RPMI+10% FBS+Penn/Strep+50 μM bME+5 mM HEPES). A compound provided herein is diluted in B Cell Media and added in a 10 μl volume. Plates are incubated for 30 min at 37° C. and 5% CO2 (0.2% DMSO final concentration). A 50 μl B cell stimulation cocktail is then added containing either 10 μg/ml LPS or 5 μg/ml F(ab′)2 Donkey anti-mouse […] plus 2 ng/ml recombinant mouse IL4 in B Cell Media. Plates are incubated for 72 hours at 37° C. and 5% CO2. A volume of 15 μL of Alamar Blue reagent is added to each well and plates are incubated for 5 hours at 37° C. and 5% CO2. Alamar Blue fluoresce is read at 560Ex/590Em, and IC50 or EC50 values are calculated using GraphPad Prism 5.

In the next assay the target is PI3Kβ. Put plainly: PI3 Kinase HTRF assay, PI3Kβ. Type of assay: biochemical, human. The settings on record: 10 μM PIP2, 10 μM ATP; 'Greater than 10 μM' and 'Greater than 1 μM to 10 μM'; read-out: PI3K β IC50.
Chain of PI3Kβ (Q8BTI9 whole entry): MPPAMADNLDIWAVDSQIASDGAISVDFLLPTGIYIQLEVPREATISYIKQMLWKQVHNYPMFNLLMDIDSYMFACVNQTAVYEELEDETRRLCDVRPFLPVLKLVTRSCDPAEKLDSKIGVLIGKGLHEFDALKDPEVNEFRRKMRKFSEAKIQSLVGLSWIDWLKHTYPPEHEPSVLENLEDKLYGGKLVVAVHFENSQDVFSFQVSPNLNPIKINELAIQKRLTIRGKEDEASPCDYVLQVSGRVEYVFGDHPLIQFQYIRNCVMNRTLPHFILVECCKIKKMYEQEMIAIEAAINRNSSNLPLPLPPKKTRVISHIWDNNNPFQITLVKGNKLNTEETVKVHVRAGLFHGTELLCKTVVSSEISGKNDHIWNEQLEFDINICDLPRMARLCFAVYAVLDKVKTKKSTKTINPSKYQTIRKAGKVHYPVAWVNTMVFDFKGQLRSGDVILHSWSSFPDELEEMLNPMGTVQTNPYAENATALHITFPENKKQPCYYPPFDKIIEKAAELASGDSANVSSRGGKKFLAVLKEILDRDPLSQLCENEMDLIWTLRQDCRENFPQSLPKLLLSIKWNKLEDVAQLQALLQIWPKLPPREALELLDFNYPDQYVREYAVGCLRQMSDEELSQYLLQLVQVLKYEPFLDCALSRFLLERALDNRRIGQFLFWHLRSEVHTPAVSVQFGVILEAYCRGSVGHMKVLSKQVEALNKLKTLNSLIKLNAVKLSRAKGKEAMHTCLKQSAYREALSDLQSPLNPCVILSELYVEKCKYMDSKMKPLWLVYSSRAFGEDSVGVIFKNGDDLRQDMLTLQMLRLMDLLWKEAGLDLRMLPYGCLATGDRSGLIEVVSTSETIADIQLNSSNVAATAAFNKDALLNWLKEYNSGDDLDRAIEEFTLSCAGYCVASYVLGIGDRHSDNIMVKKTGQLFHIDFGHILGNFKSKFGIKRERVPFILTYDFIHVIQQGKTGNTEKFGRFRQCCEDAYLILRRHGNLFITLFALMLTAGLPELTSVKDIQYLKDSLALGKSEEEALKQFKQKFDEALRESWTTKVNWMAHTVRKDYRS
From the text: as §1
as §2, with “Purified recombinant PI3Kα (catalogue No. 14-602-K), PI3Kβ (catalogue No. 14-603-K), PI3Kγ (catalogue No. 14-558-K) and PI3Kδ (catalogue No. 14-604-K) were obtained from Millipore Corporation.” left out, “The concentration necessary to achieve inhibition of enzyme activity by 50% (IC50) was calculated using concentrations ranging from 20 μM to 0.1 nM (12-point curve).” left out
On the technique in general: Time-resolved FRET reads energy transfer from a long-lived donor to a nearby acceptor.

T1 sequence (P42336 whole entry): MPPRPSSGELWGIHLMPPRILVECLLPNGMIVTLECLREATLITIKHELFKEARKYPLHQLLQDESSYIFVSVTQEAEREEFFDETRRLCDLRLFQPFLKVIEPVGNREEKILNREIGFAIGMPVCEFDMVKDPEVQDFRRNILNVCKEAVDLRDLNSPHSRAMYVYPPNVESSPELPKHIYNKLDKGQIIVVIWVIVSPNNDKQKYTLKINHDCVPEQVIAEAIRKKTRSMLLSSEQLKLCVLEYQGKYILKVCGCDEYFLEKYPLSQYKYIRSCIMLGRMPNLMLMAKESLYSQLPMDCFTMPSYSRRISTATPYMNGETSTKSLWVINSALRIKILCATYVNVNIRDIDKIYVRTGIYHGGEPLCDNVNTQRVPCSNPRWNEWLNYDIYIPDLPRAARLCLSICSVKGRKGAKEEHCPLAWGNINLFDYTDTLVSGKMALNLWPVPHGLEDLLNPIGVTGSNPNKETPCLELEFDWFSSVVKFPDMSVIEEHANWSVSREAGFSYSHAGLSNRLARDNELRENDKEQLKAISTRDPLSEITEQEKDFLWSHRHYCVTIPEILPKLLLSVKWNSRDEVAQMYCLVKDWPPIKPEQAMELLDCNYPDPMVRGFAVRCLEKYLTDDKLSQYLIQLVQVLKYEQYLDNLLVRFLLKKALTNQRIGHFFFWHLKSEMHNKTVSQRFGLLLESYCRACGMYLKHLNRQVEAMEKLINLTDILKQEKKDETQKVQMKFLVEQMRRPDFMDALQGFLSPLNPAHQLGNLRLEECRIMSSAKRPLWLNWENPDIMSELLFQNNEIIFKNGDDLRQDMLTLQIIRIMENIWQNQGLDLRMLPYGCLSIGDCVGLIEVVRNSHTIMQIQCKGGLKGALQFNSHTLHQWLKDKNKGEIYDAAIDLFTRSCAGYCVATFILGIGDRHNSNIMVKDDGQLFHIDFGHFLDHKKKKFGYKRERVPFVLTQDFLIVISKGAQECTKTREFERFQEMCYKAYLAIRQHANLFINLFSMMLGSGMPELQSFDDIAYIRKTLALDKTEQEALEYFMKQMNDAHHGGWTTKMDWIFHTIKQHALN
T1 sequence (P27986 whole entry partner): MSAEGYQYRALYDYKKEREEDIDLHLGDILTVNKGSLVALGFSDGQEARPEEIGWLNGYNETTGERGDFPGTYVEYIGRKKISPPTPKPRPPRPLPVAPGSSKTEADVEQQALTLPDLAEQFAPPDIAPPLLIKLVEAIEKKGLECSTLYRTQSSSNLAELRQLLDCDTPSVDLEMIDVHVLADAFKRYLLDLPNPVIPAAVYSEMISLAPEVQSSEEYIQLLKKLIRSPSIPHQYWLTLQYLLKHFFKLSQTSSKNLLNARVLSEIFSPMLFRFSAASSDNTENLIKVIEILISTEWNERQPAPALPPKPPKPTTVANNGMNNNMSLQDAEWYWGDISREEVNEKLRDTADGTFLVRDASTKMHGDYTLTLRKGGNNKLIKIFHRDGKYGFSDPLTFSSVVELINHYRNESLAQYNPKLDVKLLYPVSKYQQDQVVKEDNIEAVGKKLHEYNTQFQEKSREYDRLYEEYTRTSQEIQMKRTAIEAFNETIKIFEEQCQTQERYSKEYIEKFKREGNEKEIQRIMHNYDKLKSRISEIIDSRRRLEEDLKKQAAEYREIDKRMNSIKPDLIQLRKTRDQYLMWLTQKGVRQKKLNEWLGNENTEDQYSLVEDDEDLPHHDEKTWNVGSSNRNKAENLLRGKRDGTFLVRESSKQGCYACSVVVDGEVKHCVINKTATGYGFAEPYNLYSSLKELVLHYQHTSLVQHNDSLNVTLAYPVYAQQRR

Regarding `C[C@H](Nc1ncnc2cccnc12)c1cc2c(F)cccc2c(=O)n1-c1ccccc1` [Compound I-4], the IC50 on PI3Kα and at PI3Kβ was 1 to 10 µM in each case. In the assay with Balb/c splenic B cells, the EC50 (as a rule, the concentration giving half of the maximal effect) is < 0.1 µM.
For the compound `C[C@H](Nc1ncnc2cccnc12)c1cc2ccc(F)cc2c(=O)n1-c1ccccc1` [Compound I-18], the IC50 on PI3Kα and at PI3Kβ was 1 to 10 µM in each case. The EC50 in the assay with Balb/c splenic B cells was < 0.1 µM.
Regarding `C[C@H](Nc1ncnc2cccnc12)c1cc2cccc(-c3cnn(C)c3)c2c(=O)n1C1CC1` [Compound I-24], the IC50 on PI3Kα and on PI3Kβ was 1 to 10 µM each time. Moreover, in the assay with Balb/c splenic B cells, the EC50 is < 0.1 µM.
For the compound `C[C@H](Nc1ncnc2cccnc12)c1cc2cccc(-c3cnn(C)c3)c2c(=O)n1-c1cccc(F)c1` [Compound I-25], the values for the IC50 on PI3Kα and on PI3Kβ were 1 to 10 µM and > 10 µM, respectively. The EC50 in the assay on Balb/c splenic B cells is < 0.1 µM.
Regarding `C[C@H](Nc1nc(N)nc2cccnc12)c1cc2cccc(-c3cnn(C)c3)c2c(=O)n1-c1cccc(F)c1` [Compound I-38], the results for the IC50 on PI3Kα and at PI3Kβ were 1 to 10 µM and > 10 µM, respectively. The EC50 in the assay with Balb/c splenic B cells was < 0.1 µM.
The like results for `C[C@H](Nc1ncnc2cccnc12)c1cc2cccc(-c3ccc(N)nc3)c2c(=O)n1-c1ccccc1` [Compound I-43] were, in that order, 1 to 10 µM, > 10 µM and < 0.1 µM.
The like results for `COc1ccc(-c2cccc3cc([C@H](C)Nc4ncnc5cccnc45)n(-c4ccccc4)c(=O)c23)cn1` [Compound I-48] were, in that order, 1 to 10 µM, > 10 µM and < 0.1 µM.
In the same order, the values of `C[C@H](Nc1ccnc2cccnc12)c1cc2cccc(Cl)c2c(=O)n1-c1cccc(F)c1` [Compound I-50] are 1 to 10 µM, 1 to 10 µM and < 0.1 µM.
In the case of `C[C@H](Nc1ccnc2cccnc12)c1cc2cccc(-c3cnn(C)c3)c2c(=O)n1-c1ccccc1` [Compound I-51], the IC50 on PI3Kα and on PI3Kβ was 1 to 10 µM in each case. In addition, in the assay on Balb/c splenic B cells, the EC50 was < 0.1 µM.
In the case of `Cc1cccc2cc([C@H](C)Nc3ncnc4cccnc34)n(-c3cccc(F)c3)c(=O)c12` [Compound I-70], the IC50 at PI3Kα and at PI3Kβ was 1 to 10 µM in each case. Besides, the EC50 in the assay with Balb/c splenic B cells was < 0.1 µM.
In the case of `COc1ncc(-c2cccc3cc([C@H](C)Nc4ncnc5cccnc45)n(-c4cccc(F)c4)c(=O)c23)cn1` [Compound I-73], the values for the IC50 on PI3Kα and at PI3Kβ were 1 to 10 µM and > 10 µM, respectively. Further, the EC50 in the assay on Balb/c splenic B cells was < 0.1 µM.
In the same order, the values of `C[C@H](Nc1nc(N)nc2cccnc12)c1cc2cccc(-c3cncnc3)c2c(=O)n1-c1ccccc1` [Compound I-74] are 1 to 10 µM, 1 to 10 µM and < 0.1 µM.
In the same order, the values of `C[C@H](Nc1nc(N)nc2cccnc12)c1cc2cccc(-c3ccnnc3)c2c(=O)n1-c1ccccc1` [Compound I-79] are 1 to 10 µM, 1 to 10 µM and < 0.1 µM.
The like results for `C[C@H](Nc1nc(N)nc2cccnc12)c1cc2cccc(-c3ccnnc3)c2c(=O)n1-c1cccc(F)c1` [Compound I-80] were, in that order, 1 to 10 µM, > 10 µM and < 0.1 µM.
Consider `Cc1ncc(-c2cccc3cc([C@H](C)Nc4nc(N)nc5cccnc45)n(-c4cccc(F)c4)c(=O)c23)cn1` [Compound I-84], for which the IC50 (usually the concentration needed to halve the response being measured) on PI3Kα is 1 to 10 µM; at PI3Kβ, > 10 µM. Further, the EC50 with Balb/c splenic B cells was < 0.1 µM.
In the same order, the values of `CNc1nc(N[C@@H](C)c2cc3cccc(Cl)c3c(=O)n2-c2ccccc2)c2ncccc2n1` [Compound I-96] are 1 to 10 µM, 1 to 10 µM and < 0.1 µM.
As for `C[C@H](Nc1ccnc2ccnn12)c1cc2cccc(Cl)c2c(=O)n1-c1cccc(F)c1` [II-4], the IC50 on PI3Kα and at PI3Kβ was 1 to 10 µM throughout. Besides, the EC50 in the assay on Balb/c splenic B cells was < 0.1 µM.
`C[C@H](Nc1ccnc2ccnn12)c1cc2cccc(-c3cnn(C)c3)c2c(=O)n1-c1ccccc1` [II-5, (S)-8-(1-methyl-1H-pyrazol-4-yl)-2-phenyl-3-(1-(pyrazolo[1,5-a]pyrimidin-7-ylamino)ethyl)isoquinolin-1(2H)-one]: the IC50 on PI3Kα and on PI3Kβ was 1 to 10 µM throughout. The EC50 with Balb/c splenic B cells was < 0.1 µM.
Consider `C[C@H](Nc1ccnc2ccnn12)c1cc2cccc(-c3cnn(C)c3)c2c(=O)n1-c1cccc(F)c1` [II-9], for which the IC50 at PI3Kα is 1 to 10 µM; on PI3Kβ, > 10 µM. The EC50 with Balb/c splenic B cells was < 0.1 µM.
In the same order, the values of `C[C@H](Nc1ccnn2ccnc12)c1cc2cccc(-c3cnn(C)c3)c2c(=O)n1-c1cccc(F)c1` [II-17] are 1 to 10 µM, > 10 µM and < 0.1 µM.
Take `C[C@H](Nc1ccnn2ccnc12)c1cc2cccc(-c3cnn(C)c3)c2c(=O)n1-c1ccccc1` [II-18]: the concentration for half-maximal inhibition (IC50) at PI3Kα and at PI3Kβ was 1 to 10 µM each time. Further, in the assay on Balb/c splenic B cells, the EC50 is < 0.1 µM.
As to `C[C@H](Nc1ccnn2ccnc12)c1cc2cccc(-c3cnn(C)c3)c2c(=O)n1C1CC1` [II-45], the IC50 on PI3Kα and on PI3Kβ was 1 to 10 µM throughout. The EC50 in the assay on Balb/c splenic B cells is < 0.1 µM.
As to `C[C@H](Nc1ccnn2ccnc12)c1cc2cccc(C(F)(F)F)c2c(=O)n1-c1ccccc1` [III-8, (S)-3-(1-(imidazo[1,2-b]pyridazin-8-ylamino)ethyl)-2-phenyl-8-(trifluoromethyl)isoquinolin-1(2H)-one], the concentration for half-maximal inhibition (IC50) on PI3Kα is 1 to 10 µM. The EC50 in the assay on Balb/c splenic B cells is < 0.1 µM.
In the same order, the values of `C[C@H](Nc1ncnc2scnc12)c1cc2cccc(C(F)(F)F)c2c(=O)n1-c1cccc(F)c1` [III-10] are 1 to 10 µM and < 0.1 µM.
The like results for `C[C@H](Nc1ncnn2ccnc12)c1cc2cccc(C(F)(F)F)c2c(=O)n1-c1ccccc1` [III-27] were, in that order, 1 to 10 µM and < 0.1 µM.
In the same order, the values of `C[C@H](Nc1nc(N)nc2[nH]cnc12)c1cc2cccc(C(F)(F)F)c2c(=O)n1-c1cccc(F)c1` [III-30] are 1 to 10 µM and < 0.1 µM.
As for `C[C@H](Nc1ccnc2scnc12)c1cc2cccc(C(F)(F)F)c2c(=O)n1-c1ccccc1` [III-36, (S)-2-phenyl-3-(1-(thiazolo[5,4-b]pyridin-7-ylamino)ethyl)-8-(trifluoromethyl)isoquinolin-1(2H)-one], the IC50 at PI3Kα lay in the range of 1 to 10 µM. The EC50 in the assay with Balb/c splenic B cells is < 0.1 µM.
The like results for `C[C@H](Nc1ncnc2scnc12)c1cc2scc(C(F)(F)F)c2c(=O)n1-c1ccccc1` [III-39] were, in that order, 1 to 10 µM and < 0.1 µM.
The like results for `C[C@H](Nc1nc(N)ncc1C#N)c1cc2cccc(C(F)(F)F)c2c(=O)n1-c1ccccc1` [III-44] were, in that order, 1 to 10 µM and < 0.1 µM.
In the same order, the values of `C[C@H](Nc1nc(N)ncc1C#N)c1cc2cccc(C(F)(F)F)c2c(=O)n1-c1cccc(F)c1` [III-45] are 1 to 10 µM and < 0.1 µM.
With `C[C@H](Nc1ncnc(N)c1C#N)c1cc2cccc(C(F)(F)F)c2c(=O)n1-c1cccc(F)c1` [III-49], the IC50 at PI3Kα is 1 to 10 µM. In the assay on Balb/c splenic B cells, the EC50 is < 0.1 µM.
